Laboratory results published in patent publication US20220142884A1, “TREATMENT OF AGING OR UV-DAMAGED SKIN” (Echo Pharmaceuticals B.V., priority 2019, published 2022).

Assays:
[1] = system: UV-B induced secretion of prostaglandin E2 (PGE2); experiment: UV-B induced secretion of PGE2 in keratinocyte HaCaT cells (ELISA); format: cell-based, Human; conditions: component concentrations (μg/ml) per sample
Procedure: (§1) This assay was conducted on Human Epidermal Keratinocyte cells (HaCaT) and was carried out in triplicates. After reaching the required confluency, the cells were treated with pre-prepared growth medium containing the test component(s) at a final volume of 200 μL/well. Growth medium without test component was used to prepare the blank samples. The cells were incubated for 24 hr. Then, the medium was replaced with PBS (containing the test component) and the cells were subjected to 25 mJ/cm^2 (Table 2) or 12.5 mJ/cm^2 (Table 3) UV-B irradiation. The flux was determined by an external […]. Immediately after irradiation, the PBS was aspirated, and the cells were further incubated with freshly prepared media incubated for 24 hr. at 37° C. with 5% CO2. After incubation, the conditioned medium of the different treatment groups was collected under standardized conditions and centrifuged at 250×g for 5 min to remove particulates. Clear supernatants were frozen at -70° C. until analyses. The UVB-induced cytokines secretion of PGE2 was measured by commercial ELISA, according to the manufacturer's instructions. The percentage inhibition was determined by comparing PGE2 levels in the test samples with PGE2 level in the stimulated controls. Example 1 was repeated in HaCaT cells, using the lower UV-B dosage (12.5 mJ/cm^2 flux). In addition, an extra test component was used (docosahexaenoic acid).

[2] = system: UV-B induced secretion of interleukin 8 (IL-8); experiment: UV-B induced secretion of IL-8 in HaCaT cells (ELISA); format: cell-based, Human; conditions: UV-B as in Example 1, vs stimulated controls, component concentrations (μg/ml) per sample
Procedure: as §1, with “analyses. […]” for “analyses. The UVB-induced cytokines secretion of PGE2 was measured by commercial ELISA, according to the manufacturer's instructions.”, “comparing IL-8” for “comparing PGE2”, “with the IL-8” for “with PGE2”, “controls.” for “controls. Example 1 was repeated in HaCaT cells, using the lower UV-B dosage (12.5 mJ/cm^2 flux). In addition, an extra test component was used (docosahexaenoic acid).”

collagen production = conditions: skin organ cultures, inhibition of PGE2 synthesis; cited from earlier work
[3] = 25 mJ/cm^2 UV-B, 24 hr pre-incubation, vs stimulated controls
[4] = lower UV-B dosage 12.5 mJ/cm^2, vs stimulated controls

Structure (SMILES)	Inhibition (%) PGE2 [1, 3] [%]	Inhibition (%) PGE2 [1, 4] [%]	Inhibition (%) IL-8 [2] [%]	collagen production (collagen production)
C=C(C)[C@@H]1CCC(C)=C[C@H]1c1c(O)cc(CCCCC)cc1O [Sample 1, Cannabidiol]	0	−11	−1	
C=C(C)[C@@H]1CCC(C)=C[C@H]1c1c(O)cc(CCCCC)cc1O [Sample 2, Cannabidiol]	17	−8	3	
CC/C=C\C/C=C\C/C=C\C/C=C\C/C=C\CCCC(=O)O [Sample 3, eicosapentaenoic acid]	−11	−3	−6	
CC/C=C\C/C=C\C/C=C\C/C=C\C/C=C\CCCC(=O)O [Sample 4, eicosapentaenoic acid]	1	5	−16	
O=C(O)Cc1ccccc1Nc1c(Cl)cccc1Cl [diclofenac]				enhanced collagen production
